Test [1] deals with T1, Bcl-2-related protein A1 (Mus musculus, UniProt Q07440).
T1 sequence (Q07440 whole entry): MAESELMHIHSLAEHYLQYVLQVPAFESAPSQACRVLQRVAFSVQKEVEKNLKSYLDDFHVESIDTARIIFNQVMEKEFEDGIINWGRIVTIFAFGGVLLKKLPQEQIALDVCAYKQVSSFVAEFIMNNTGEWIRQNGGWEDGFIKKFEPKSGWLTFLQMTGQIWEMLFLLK
The test is described as follows: small-molecule antagonists of Bfl-1/BH3 interaction – biochemical, TR-FRET, mouse Bfl-1, confirmation (AID 621). (Time-resolved FRET reads energy transfer from a long-lived donor to a nearby acceptor.)

Test [2] deals with T1, Bcl-2-related protein A1. The test is described as follows: Bfl-1 binding inhibitors, SAR follow-up, biochemical, fluorescence polarization (AID 1070).
Test [3] deals with Mitogen-activated protein kinase 10 (Homo sapiens, UniProt P53779). The test is described as follows: Dose response biochemical screening assay for inhibitors of c-Jun N-Terminal Kinase 3 (JNK3). [Related pubchem assays: 746 ].
The target in test [4] is T2, Tyrosine-protein phosphatase non-receptor type 7 (Homo sapiens, UniProt P35236).
T2 sequence (P35236 whole entry): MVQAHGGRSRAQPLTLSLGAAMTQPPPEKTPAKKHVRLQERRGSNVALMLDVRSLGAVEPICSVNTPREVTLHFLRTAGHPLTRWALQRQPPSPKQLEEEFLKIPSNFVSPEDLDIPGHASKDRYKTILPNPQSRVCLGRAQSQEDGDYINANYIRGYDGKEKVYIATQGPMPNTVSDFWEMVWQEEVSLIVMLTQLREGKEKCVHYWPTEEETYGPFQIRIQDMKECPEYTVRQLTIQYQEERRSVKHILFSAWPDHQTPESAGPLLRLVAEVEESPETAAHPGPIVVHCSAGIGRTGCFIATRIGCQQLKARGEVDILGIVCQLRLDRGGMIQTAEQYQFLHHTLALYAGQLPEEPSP
The test is described as follows: HePTP tyrosine phosphatase activity blockers – biochemical, absorbance, leukemia target, primary screen (AID 521). The format is functional.

Test [5] can be described thus: NIH3T3 cell viability loss – ATP luminescence, mouse fibroblasts, counter-screen, dose response (AID 2010).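 Also: cells exposed to compound for about 90 hours before reading.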 The format is functional, cell-based. For orientation: Counterscreens check selectivity or assay interference.
Test [6] in a line: cells.
Test [7] in a line: Trypanosoma cruzi growth suppression in host cells – NIH3T3 host cells, beta-gal luminescence, confirmation (AID 2044).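 Also: intracellular parasites grown in NIH/3T3 mouse fibroblasts as host cells; luminescent beta-galactosidase reporter signal from transgenic T. cruzi replicating inside host cells; inhibitors lower the luminescence signal.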 The format is functional, cell-based.
The target in test [8] is Fatty acid synthase (Homo sapiens, UniProt P49327). The test can be described thus: inhibition of human FAS-TE enzyme activity – biochemical, kinetic fluorescence intensity, dose response (AID 624326).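 Also: rate of fluorescence rise from hydrolysis of a fluorogenic O-methyl fluorescein ester substrate.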 The format is functional.
The target in test [9] is Voltage-gated inwardly rectifying potassium channel KCNH2 (Homo sapiens, UniProt Q12809). The test can be described thus: concentration-dependent hERG rescue from blockers – cell-based, thallium flux, dose response (AID 2121). The format is ADME. On the technique in general: Block of hERG is tested as a sign of cardiac risk.

Each structure is given as a SMILES string. Calls of active or inactive are those of the source.

Sequence of Fatty acid synthase (P49327 whole entry): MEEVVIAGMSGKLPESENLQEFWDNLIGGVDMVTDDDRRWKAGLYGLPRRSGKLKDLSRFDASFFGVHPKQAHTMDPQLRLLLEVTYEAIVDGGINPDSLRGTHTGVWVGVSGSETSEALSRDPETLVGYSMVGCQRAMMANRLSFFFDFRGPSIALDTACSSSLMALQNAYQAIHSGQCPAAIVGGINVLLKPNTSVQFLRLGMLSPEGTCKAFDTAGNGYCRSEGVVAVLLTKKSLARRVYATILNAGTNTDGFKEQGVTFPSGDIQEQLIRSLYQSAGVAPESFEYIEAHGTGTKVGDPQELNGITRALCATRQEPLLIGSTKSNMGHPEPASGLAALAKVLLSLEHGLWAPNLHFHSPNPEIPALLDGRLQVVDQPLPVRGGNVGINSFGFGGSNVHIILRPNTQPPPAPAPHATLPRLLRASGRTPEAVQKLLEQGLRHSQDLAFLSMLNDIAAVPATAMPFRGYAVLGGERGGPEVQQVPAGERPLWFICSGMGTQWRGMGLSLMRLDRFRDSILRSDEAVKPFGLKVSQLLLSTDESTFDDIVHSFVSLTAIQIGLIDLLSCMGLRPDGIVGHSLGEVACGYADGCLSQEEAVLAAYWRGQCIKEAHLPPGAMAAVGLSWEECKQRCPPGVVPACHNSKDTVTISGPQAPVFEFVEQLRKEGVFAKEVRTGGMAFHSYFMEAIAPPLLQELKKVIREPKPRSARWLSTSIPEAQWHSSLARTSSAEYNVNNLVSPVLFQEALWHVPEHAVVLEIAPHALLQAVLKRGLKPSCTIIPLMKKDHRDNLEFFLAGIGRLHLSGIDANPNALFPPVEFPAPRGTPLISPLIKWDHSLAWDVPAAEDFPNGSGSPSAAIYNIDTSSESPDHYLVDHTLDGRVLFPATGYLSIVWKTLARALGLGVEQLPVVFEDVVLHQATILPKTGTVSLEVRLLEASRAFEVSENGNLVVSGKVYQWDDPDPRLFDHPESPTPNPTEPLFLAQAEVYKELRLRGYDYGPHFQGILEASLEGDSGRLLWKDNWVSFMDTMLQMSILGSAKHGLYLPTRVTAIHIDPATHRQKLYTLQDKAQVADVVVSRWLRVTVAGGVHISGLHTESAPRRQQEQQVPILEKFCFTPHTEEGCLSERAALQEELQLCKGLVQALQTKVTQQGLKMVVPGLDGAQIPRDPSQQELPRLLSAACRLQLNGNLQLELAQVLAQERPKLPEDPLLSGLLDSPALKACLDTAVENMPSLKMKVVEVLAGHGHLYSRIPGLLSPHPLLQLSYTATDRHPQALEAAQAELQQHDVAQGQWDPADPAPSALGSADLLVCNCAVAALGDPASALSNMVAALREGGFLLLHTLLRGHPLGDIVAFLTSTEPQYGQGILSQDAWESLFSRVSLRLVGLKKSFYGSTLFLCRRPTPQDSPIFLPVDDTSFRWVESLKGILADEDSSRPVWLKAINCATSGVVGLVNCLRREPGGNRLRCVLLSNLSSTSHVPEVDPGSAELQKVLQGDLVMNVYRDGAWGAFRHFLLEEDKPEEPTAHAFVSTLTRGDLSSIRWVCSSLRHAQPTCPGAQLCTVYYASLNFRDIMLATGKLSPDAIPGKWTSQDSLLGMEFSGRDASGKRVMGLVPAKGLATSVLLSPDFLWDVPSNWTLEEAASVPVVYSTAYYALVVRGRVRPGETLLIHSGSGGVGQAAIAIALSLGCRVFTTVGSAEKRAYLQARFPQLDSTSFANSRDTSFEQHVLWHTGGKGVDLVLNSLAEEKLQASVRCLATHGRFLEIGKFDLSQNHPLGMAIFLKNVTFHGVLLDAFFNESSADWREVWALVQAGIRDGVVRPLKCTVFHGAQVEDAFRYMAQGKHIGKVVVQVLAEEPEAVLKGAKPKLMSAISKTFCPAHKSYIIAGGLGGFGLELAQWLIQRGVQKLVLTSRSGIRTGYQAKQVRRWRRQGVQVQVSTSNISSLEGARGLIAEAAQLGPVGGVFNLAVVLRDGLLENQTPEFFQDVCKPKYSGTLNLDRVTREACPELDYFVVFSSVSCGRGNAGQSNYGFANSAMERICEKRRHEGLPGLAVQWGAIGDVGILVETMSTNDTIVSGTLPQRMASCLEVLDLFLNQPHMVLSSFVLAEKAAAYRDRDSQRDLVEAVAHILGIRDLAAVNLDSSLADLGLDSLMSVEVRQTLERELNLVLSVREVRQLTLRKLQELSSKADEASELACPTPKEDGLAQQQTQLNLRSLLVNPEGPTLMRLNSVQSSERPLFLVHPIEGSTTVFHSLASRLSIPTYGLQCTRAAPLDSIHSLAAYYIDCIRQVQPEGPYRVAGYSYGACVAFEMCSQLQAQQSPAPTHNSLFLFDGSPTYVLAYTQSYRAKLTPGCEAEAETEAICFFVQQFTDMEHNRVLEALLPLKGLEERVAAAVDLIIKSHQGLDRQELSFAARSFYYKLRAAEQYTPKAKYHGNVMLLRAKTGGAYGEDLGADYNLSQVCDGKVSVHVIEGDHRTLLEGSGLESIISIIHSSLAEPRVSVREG
Sequence of Voltage-gated inwardly rectifying potassium channel KCNH2 (Q12809 whole entry): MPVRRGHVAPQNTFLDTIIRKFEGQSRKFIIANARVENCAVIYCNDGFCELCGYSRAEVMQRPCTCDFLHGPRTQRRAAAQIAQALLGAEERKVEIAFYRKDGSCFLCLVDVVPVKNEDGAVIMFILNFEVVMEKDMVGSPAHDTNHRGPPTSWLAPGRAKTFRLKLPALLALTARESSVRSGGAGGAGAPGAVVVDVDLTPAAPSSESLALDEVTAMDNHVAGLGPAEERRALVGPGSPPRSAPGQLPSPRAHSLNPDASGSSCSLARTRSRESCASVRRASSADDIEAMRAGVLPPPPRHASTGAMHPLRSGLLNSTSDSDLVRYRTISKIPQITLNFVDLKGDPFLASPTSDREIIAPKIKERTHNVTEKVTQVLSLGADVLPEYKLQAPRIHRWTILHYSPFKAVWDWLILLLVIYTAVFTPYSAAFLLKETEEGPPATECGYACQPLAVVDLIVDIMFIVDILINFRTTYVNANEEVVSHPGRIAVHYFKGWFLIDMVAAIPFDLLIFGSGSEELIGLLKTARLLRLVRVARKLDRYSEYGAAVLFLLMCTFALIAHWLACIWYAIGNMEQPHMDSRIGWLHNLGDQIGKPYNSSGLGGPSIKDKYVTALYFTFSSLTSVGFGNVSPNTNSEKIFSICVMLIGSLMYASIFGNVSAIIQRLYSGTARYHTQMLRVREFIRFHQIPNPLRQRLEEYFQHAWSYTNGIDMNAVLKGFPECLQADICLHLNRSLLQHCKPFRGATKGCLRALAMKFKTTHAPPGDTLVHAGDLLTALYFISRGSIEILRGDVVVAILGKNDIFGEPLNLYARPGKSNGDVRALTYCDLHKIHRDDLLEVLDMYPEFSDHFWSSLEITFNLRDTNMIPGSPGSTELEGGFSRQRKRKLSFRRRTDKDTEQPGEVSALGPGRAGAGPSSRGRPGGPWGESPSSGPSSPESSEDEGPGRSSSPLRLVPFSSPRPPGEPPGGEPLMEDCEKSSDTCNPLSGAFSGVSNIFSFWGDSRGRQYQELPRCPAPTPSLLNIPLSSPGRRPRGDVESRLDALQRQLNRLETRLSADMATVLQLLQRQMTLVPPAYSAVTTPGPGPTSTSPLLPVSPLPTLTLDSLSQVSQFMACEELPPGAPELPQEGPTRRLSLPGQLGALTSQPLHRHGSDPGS
Sequence of Mitogen-activated protein kinase 10 (P53779 whole entry): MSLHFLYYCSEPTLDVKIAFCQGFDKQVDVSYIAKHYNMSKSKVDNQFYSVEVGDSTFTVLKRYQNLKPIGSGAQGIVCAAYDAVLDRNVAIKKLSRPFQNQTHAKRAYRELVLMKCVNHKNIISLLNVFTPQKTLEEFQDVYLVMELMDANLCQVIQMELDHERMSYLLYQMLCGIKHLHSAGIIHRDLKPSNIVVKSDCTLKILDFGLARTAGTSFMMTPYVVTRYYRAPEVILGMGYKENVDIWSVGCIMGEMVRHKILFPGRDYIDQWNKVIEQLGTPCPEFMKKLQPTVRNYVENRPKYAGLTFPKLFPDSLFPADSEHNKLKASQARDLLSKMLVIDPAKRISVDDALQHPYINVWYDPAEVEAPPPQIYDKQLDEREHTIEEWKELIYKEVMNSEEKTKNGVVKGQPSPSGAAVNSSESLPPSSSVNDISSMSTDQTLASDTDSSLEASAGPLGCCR

By IC50 is commonly meant the concentration that inhibits the measured activity by half. As to `Cc1ccc(-n2nnc(-c3cnc4ccccc4c3)n2)cc1`, the half-inhibitory concentration (IC50) in test [1] and in [2] was > 100 µM (not active) in each case.
For `CCOc1cccc(NC(=O)C2CCCN(S(=O)(=O)c3ccc(-n4cnnn4)cc3)C2)c1` (centres undefined), in test [3], the IC50 is given as > 93.1 µM (not active).
`CNC(=O)N(c1ccccc1)c1ccccc1`: the IC50 in test [4] is reported as > 100 µM (not active).
In general, EC50 refers to the concentration giving half of the maximal effect. `CCOC(=O)N1CCN(S(=O)(=O)c2ccc(C(=O)N(CCN(C)C)c3nc4ccc(Cl)cc4s3)cc2)CC1`: the EC50 in test [5] is > 60 µM (not active); in [6], 0.07 µM (active); in [7], < 0.1 µM (active).
In the case of `Cc1cccc(N2CCN(C(=O)CNC(=O)c3cccc([N+](=O)[O-])c3)CC2)c1C`, in test [8], the half-inhibitory concentration (IC50) was 1.51 µM (active). Moreover, the concentration for a half-maximal effect (EC50) in test [9] was 0.38 µM (active).

Source of the values: ChEMBL document CHEMBL1201862, “PubChem BioAssay data set” (2004).
